Measurements from the NIST ThermoML archive (doi:10.1021/je1012235).
± gives the expanded uncertainty stated by the source.

Conditions: 101.33 kPa, Liquid; for mass density: Vibrating tube method

SMILES: CCCCCCCC/C=C\CCCCCCCCCCCC(=O)OC [methyl (Z)-13-docosenoate]
- viscosity (278.15 K): 18.09 ± 0.23 mPa·s
- mass density (278.15 K): 881.6 ± 1 kg/m3
- viscosity (283.15 K): 14.94 ± 0.19 mPa·s
- mass density (283.15 K): 877.9 ± 1 kg/m3
- viscosity (288.15 K): 12.56 ± 0.16 mPa·s
- mass density (288.15 K): 874.3 ± 1 kg/m3
- viscosity (293.15 K): 10.66 ± 0.14 mPa·s
- mass density (293.15 K): 870.7 ± 1 kg/m3
- viscosity (298.15 K): 9.141 ± 0.12 mPa·s
- mass density (298.15 K): 867.1 ± 1 kg/m3
- viscosity (303.15 K): 7.907 ± 0.1 mPa·s
- mass density (303.15 K): 863.6 ± 1 kg/m3
- viscosity (308.15 K): 6.917 ± 0.09 mPa·s
- mass density (308.15 K): 860 ± 1 kg/m3
- viscosity (313.15 K): 5.958 ± 0.078 mPa·s
- mass density (313.15 K): 856.5 ± 1 kg/m3
- viscosity (318.15 K): 5.402 ± 0.071 mPa·s
- mass density (318.15 K): 853 ± 1 kg/m3
- viscosity (323.15 K): 4.76 ± 0.063 mPa·s
- mass density (323.15 K): 849.4 ± 1 kg/m3
- viscosity (328.15 K): 4.331 ± 0.058 mPa·s
- mass density (328.15 K): 845.9 ± 1 kg/m3
- viscosity (333.15 K): 3.91 ± 0.053 mPa·s
- mass density (333.15 K): 842.4 ± 1 kg/m3
- viscosity (338.15 K): 3.548 ± 0.048 mPa·s
- mass density (338.15 K): 839 ± 1 kg/m3
- viscosity (343.15 K): 3.234 ± 0.044 mPa·s
- mass density (343.15 K): 835.5 ± 1 kg/m3
- viscosity (348.15 K): 2.961 ± 0.041 mPa·s
- mass density (348.15 K): 832 ± 1 kg/m3
- viscosity (353.15 K): 2.707 ± 0.038 mPa·s
- mass density (353.15 K): 828.6 ± 1 kg/m3
- viscosity (358.15 K): 2.51 ± 0.035 mPa·s
- mass density (358.15 K): 825.1 ± 1 kg/m3
- viscosity (363.15 K): 2.322 ± 0.033 mPa·s
- mass density (363.15 K): 821.7 ± 1 kg/m3

SMILES: CC/C=C\C/C=C\C/C=C\CCCCCCCC(=O)OC [methyl (Z,Z,Z)-9,12,15-octadecatrienoate]
- viscosity (278.15 K): 6.361 ± 0.083 mPa·s
- mass density (278.15 K): 913.2 ± 1 kg/m3
- viscosity (283.15 K): 5.618 ± 0.074 mPa·s
- mass density (283.15 K): 909.5 ± 1 kg/m3
- viscosity (288.15 K): 5.003 ± 0.066 mPa·s
- mass density (288.15 K): 905.7 ± 1 kg/m3
- viscosity (293.15 K): 4.484 ± 0.06 mPa·s
- mass density (293.15 K): 901.9 ± 1 kg/m3
- viscosity (298.15 K): 4.043 ± 0.054 mPa·s
- mass density (298.15 K): 898.2 ± 1 kg/m3
- viscosity (303.15 K): 3.667 ± 0.05 mPa·s
- mass density (303.15 K): 894.5 ± 1 kg/m3
- viscosity (308.15 K): 3.341 ± 0.046 mPa·s
- mass density (308.15 K): 890.7 ± 1 kg/m3
- viscosity (313.15 K): 2.925 ± 0.04 mPa·s
- mass density (313.15 K): 887 ± 1 kg/m3
- viscosity (318.15 K): 2.675 ± 0.037 mPa·s
- mass density (318.15 K): 883.3 ± 1 kg/m3
- viscosity (323.15 K): 2.472 ± 0.035 mPa·s
- mass density (323.15 K): 879.6 ± 1 kg/m3
- viscosity (328.15 K): 2.303 ± 0.033 mPa·s
- mass density (328.15 K): 876 ± 1 kg/m3
- viscosity (333.15 K): 2.123 ± 0.03 mPa·s
- mass density (333.15 K): 872.3 ± 1 kg/m3
- viscosity (338.15 K): 1.966 ± 0.029 mPa·s
- mass density (338.15 K): 868.6 ± 1 kg/m3
- viscosity (343.15 K): 1.817 ± 0.027 mPa·s
- mass density (343.15 K): 864.9 ± 1 kg/m3
- viscosity (348.15 K): 1.688 ± 0.025 mPa·s
- mass density (348.15 K): 861.2 ± 1 kg/m3
- viscosity (353.15 K): 1.583 ± 0.024 mPa·s
- mass density (353.15 K): 857.6 ± 1 kg/m3
- viscosity (358.15 K): 1.488 ± 0.023 mPa·s
- mass density (358.15 K): 853.9 ± 1 kg/m3
- viscosity (363.15 K): 1.402 ± 0.022 mPa·s
- mass density (363.15 K): 850.3 ± 1 kg/m3
- viscosity (368.15 K): 1.327 ± 0.021 mPa·s
- viscosity (373.15 K): 1.253 ± 0.02 mPa·s

SMILES: CCCCCCCC/C=C\CCCCCCCCCC(=O)OC [methyl cis-11-eicosenoate]
- viscosity (278.15 K): 14.34 ± 0.22 mPa·s
- mass density (278.15 K): 884.8 ± 1.2 kg/m3
- viscosity (283.15 K): 11.97 ± 0.19 mPa·s
- mass density (283.15 K): 881.1 ± 1.2 kg/m3
- viscosity (288.15 K): 10.13 ± 0.16 mPa·s
- mass density (288.15 K): 877.5 ± 1.2 kg/m3
- viscosity (293.15 K): 8.667 ± 0.14 mPa·s
- mass density (293.15 K): 873.8 ± 1.2 kg/m3
- viscosity (298.15 K): 7.488 ± 0.12 mPa·s
- mass density (298.15 K): 870.2 ± 1.2 kg/m3
- viscosity (303.15 K): 6.528 ± 0.1 mPa·s
- mass density (303.15 K): 866.6 ± 1.2 kg/m3
- viscosity (308.15 K): 5.738 ± 0.09 mPa·s
- mass density (308.15 K): 863 ± 1 kg/m3
- viscosity (313.15 K): 5.08 ± 0.08 mPa·s
- mass density (313.15 K): 859.5 ± 1.2 kg/m3
- viscosity (318.15 K): 4.529 ± 0.072 mPa·s
- mass density (318.15 K): 855.9 ± 1.2 kg/m3
- viscosity (323.15 K): 4.062 ± 0.065 mPa·s
- mass density (323.15 K): 852.3 ± 1.2 kg/m3
- viscosity (328.15 K): 3.665 ± 0.059 mPa·s
- mass density (328.15 K): 848.8 ± 1.2 kg/m3
- viscosity (333.15 K): 3.323 ± 0.054 mPa·s
- mass density (333.15 K): 845.2 ± 1.2 kg/m3
- viscosity (338.15 K): 3.028 ± 0.049 mPa·s
- mass density (338.15 K): 841.7 ± 1.2 kg/m3
- viscosity (343.15 K): 2.771 ± 0.045 mPa·s
- mass density (343.15 K): 838.2 ± 1.2 kg/m3
- viscosity (348.15 K): 2.546 ± 0.042 mPa·s
- mass density (348.15 K): 834.6 ± 1.2 kg/m3
- viscosity (353.15 K): 2.348 ± 0.039 mPa·s
- mass density (353.15 K): 831.1 ± 1.2 kg/m3
- viscosity (358.15 K): 2.174 ± 0.036 mPa·s
- mass density (358.15 K): 827.6 ± 1.2 kg/m3
- viscosity (363.15 K): 2.019 ± 0.034 mPa·s
- mass density (363.15 K): 824.1 ± 1.2 kg/m3
- viscosity (368.15 K): 1.881 ± 0.032 mPa·s
- mass density (368.15 K): 820.7 ± 1.2 kg/m3
- viscosity (373.15 K): 1.758 ± 0.03 mPa·s
- mass density (373.15 K): 817.3 ± 1.2 kg/m3

SMILES: CCCCCCCCCCCCCCCCCCCCCC(=O)OC [methyl docosanoate]
- viscosity (333.15 K): 4.749 ± 0.063 mPa·s
- mass density (333.15 K): 834.5 ± 1 kg/m3
- viscosity (338.15 K): 4.274 ± 0.057 mPa·s
- mass density (338.15 K): 831 ± 1 kg/m3
- viscosity (343.15 K): 3.866 ± 0.052 mPa·s
- mass density (343.15 K): 827.5 ± 1 kg/m3
- viscosity (348.15 K): 3.513 ± 0.048 mPa·s
- mass density (348.15 K): 824.1 ± 1 kg/m3
- viscosity (353.15 K): 3.207 ± 0.044 mPa·s
- mass density (353.15 K): 820.6 ± 1 kg/m3
- viscosity (358.15 K): 2.939 ± 0.041 mPa·s
- mass density (358.15 K): 817.2 ± 1 kg/m3
- viscosity (363.15 K): 2.709 ± 0.038 mPa·s
- mass density (363.15 K): 813.7 ± 1 kg/m3
- viscosity (368.15 K): 2.502 ± 0.035 mPa·s
- mass density (368.15 K): 810.3 ± 1 kg/m3
- viscosity (373.15 K): 2.317 ± 0.033 mPa·s
- mass density (373.15 K): 806.9 ± 1 kg/m3

SMILES: CCCCCCCCCCCCCCCCCCCC(=O)OC [methyl eicosanoate]
- viscosity (323.15 K): 4.832 ± 0.061 mPa·s
- mass density (323.15 K): 842.3 ± 1 kg/m3
- viscosity (328.15 K): 4.323 ± 0.055 mPa·s
- mass density (328.15 K): 838.7 ± 1 kg/m3
- viscosity (333.15 K): 3.889 ± 0.05 mPa·s
- mass density (333.15 K): 834.9 ± 1 kg/m3
- viscosity (338.15 K): 3.517 ± 0.045 mPa·s
- mass density (338.15 K): 831.4 ± 1 kg/m3
- viscosity (343.15 K): 3.196 ± 0.042 mPa·s
- mass density (343.15 K): 827.8 ± 1 kg/m3
- viscosity (348.15 K): 2.918 ± 0.038 mPa·s
- mass density (348.15 K): 824.3 ± 1 kg/m3
- viscosity (353.15 K): 2.674 ± 0.035 mPa·s
- mass density (353.15 K): 820.8 ± 1 kg/m3
- viscosity (358.15 K): 2.461 ± 0.033 mPa·s
- mass density (358.15 K): 817.3 ± 1 kg/m3
- viscosity (363.15 K): 2.273 ± 0.031 mPa·s
- mass density (363.15 K): 813.8 ± 1 kg/m3
- viscosity (368.15 K): 2.107 ± 0.029 mPa·s
- mass density (368.15 K): 810.4 ± 1 kg/m3
- viscosity (373.15 K): 1.959 ± 0.027 mPa·s
- mass density (373.15 K): 807 ± 1 kg/m3

SMILES: CCCCCCCCCCCCCCCCCCCCCCCC(=O)OC [methyl tetracosanoate]
- viscosity (338.15 K): 5.139 ± 0.068 mPa·s
- mass density (338.15 K): 830.5 ± 1 kg/m3
- viscosity (343.15 K): 4.628 ± 0.062 mPa·s
- mass density (343.15 K): 827.1 ± 1 kg/m3
- viscosity (348.15 K): 4.189 ± 0.056 mPa·s
- mass density (348.15 K): 823.7 ± 1 kg/m3
- viscosity (353.15 K): 3.81 ± 0.051 mPa·s
- mass density (353.15 K): 820.3 ± 1 kg/m3
- viscosity (358.15 K): 3.48 ± 0.047 mPa·s
- mass density (358.15 K): 816.9 ± 1 kg/m3
- viscosity (363.15 K): 3.19 ± 0.044 mPa·s
- mass density (363.15 K): 813.5 ± 1 kg/m3
- viscosity (368.15 K): 2.933 ± 0.041 mPa·s
- mass density (368.15 K): 810.1 ± 1 kg/m3
- viscosity (373.15 K): 2.707 ± 0.038 mPa·s
- mass density (373.15 K): 806.8 ± 1 kg/m3
